Values quoted from earlier work in patent publication US20240165036A1, “ENCAPSULATED VITAMIN D” (Nulixir Inc., priority 2022, published 2024).

Details: reference phases water and n-octanol; pH=7 unless stated otherwise

| Structure (SMILES) | log P |
| --- | --- |
| CCNC(=O)CC[C@H](N)C(=O)O [L-theanine] | ~−3 |
| O=C(O)c1cc(C(=O)O)c2c(n1)C(=O)C(=O)c1cc(C(=O)O)[nH]c1-2 [PQQ, pyrroloquinoline quinone] | ~0.4 |
| Cn1cnc2c1c(=O)[nH]c(=O)n2C [theobromine] | ~−0.78 |
| COc1cc(O)c2c(=O)c(OC)c(-c3ccc(O)cc3)oc2c1 [kumatakenin] | ~2.5 |
| NCCCC(=O)O [GABA, gamma-aminobutyric acid] | ~−3 |

Second part, the molecule after the results:

| log P | Structure (SMILES) |
| --- | --- |
| ~2.2 | O=C(/C=C/c1ccccc1)N1CCCC1 [(E)-1-cinnamoylpyrrolidine] |
| ~−1.38 | N[C@@H](Cc1ccccc1)C(=O)O [L-phenylalanine] |
| ~−2 | N[C@@H](Cc1c[nH]c2ccc(O)cc12)C(=O)O [Dispersion 5-HTP, 5-hydroxytryptophan] |
| ~2.8 | COc1ccc(/C=C/c2cc(OC)cc(=O)o2)cc1 [yangonin] |
